Measurements: patent publication US20230332232A1, “COMPOSITIONS AND METHODS FOR DIAGNOSING AND TREATING A DYSTONIA” (Duke University, priority 2020, published 2023)

Test system: DYT1 knockin (Tor1a^delGAG/+) murine embryonic fibroblasts (MEFs)
Test: microRNA-seq of EVs from DYT1 MEFs treated with drug, compared with non-treated DYT1 MEFs
Format: cell-based, mouse
Details: for Abs Z Score Sum (Geno + RTV) / RTV Direction Opposite dE?: EVs of DYT1 (Het) MEFs
Experimental: In addition to proteomic analysis, total RNA-seq and microRNA-seq was performed on RNA isolated in parallel from the EV samples of Cohort 2. As with the proteomic analysis, one biological replicate was prepared from 3 distinct biological clonal cell lines for each genotype. Here, EVs were isolated from conditioned cell culture media by 18 hour ultracentrifugation at 100,000 g. RNA was extracted using the Qiagen miRNeasy Micro Kit (Cat. No. 217084) according to the manufacturer's protocol. Two RNA fractions were extracted from each sample, one enriched in coding and non-coding RNA species>200 nt (“Total RNA” fraction) and one enriched for small RNAs<200 nt (“miRNA” fraction). RNA samples were then submitted to the Duke Sequencing and Genomic Technologies shared resource for further quality control and sequencing. Samples were assessed for concentration and integrity by Qubit and Fragment Analyzer. The miRNA fractions were 4.16 ng/μL-47.57 ng/μL and total RNA fractions were 3.8 ng/μL-43.6 ng/μL. The small RNA library was prepared using the QIAseq miRNA Library Kit (Cat No./ID: 331505) and sequenced on the Illumina NextSeq 500 High-Output platform with 75 bp single-reads. The total RNA library was prepared using the Illumina TruSeq Stranded Total RNA-seq Kit with Ribozero Gold ribosomal RNA reduction and sequenced on the Illumina NovaSeq 6000 S1 platform with 100 bp paired-end reads. Sequencer lane pooling and read depth are attached in the Excel data summary (See “RNA QC” Tab). Data processing and analysis were performed in collaboration with the Duke Genomic Analysis and Bioinformatics shared resource. RNA-seq data was processed using the TrimGalore toolkit (http://www.bioinformatics.babraham.ac.uk/projects/trim_galore), which employs Cutadapt(Martin M. (2011) EMBnet.journal. 17(1):10-12) to trim low quality bases and Illumina sequencing adapters from the 3' end of the reads. Only reads that were 20 nt or longer after trimming were kept for further analysis. Reads were mapped to the mouse genome and transcriptome ([…], et al. (2012) Nucleic Acids Res. 40(Database issue):[…]-97) using the STAR RNA-seq alignment tool (Dobin A, et al. (2013). Bioinformatics. 29(1):15-21). If the reads mapped to a single genomic location, then they were kept for subsequent analysis. Gene counts were compiled using the HTSeq tool (http://www-huber.embl.de/users/anders/HTSeq/). Only genes that had at least 10 reads in any given library were used in subsequent analysis. Normalization and differential expression was carried out using the DESeq26 Bioconductor (Huber W, et al. (2015) Nat Methods. 12(2):115-121) package with the R statistical programming environment (www.r-project.org). […] 694 miRNAs were initially examined with respect to QC, genotype, RTV effects, and ISRIB effects. This subset was the “Full miRNA” subset. FIG. 9A and FIG. 9B show the RTV effect on EV composition in DYT1 cells compared to WT cells for 279 miRNAs, respectively. […] Beginning with the 694 miRNAs in the “Full miRNA” subset, more than 60 molecules were detected in either WT cells or DYT1 cells (WT or Het UMI>60). […] The candidate miRNAs were ranked by the sum of genotype-dependent absolute Z-scores and RTV-induced absolute Z-scores (Abs Z Score Sum (Geno+RTV)). This subset was the “miRNA-Ritonavir Therapeutic Efficacy” subset and contained 201 miRNAs.

[1] = sum of genotype and RTV absolute Z-scores

CC(C)c1nc(CN(C)C(=O)N[C@H](C(=O)N[C@@H](Cc2ccccc2)C[C@H](O)[C@H](Cc2ccccc2)NC(=O)OCc2cncs2)C(C)C)cs1 [RTV, Ritonavir] was tested, and the “RTVvHet Z Score” value (mmu-miR-183-5p) was 3.42, the “Abs Z Score Sum (Geno + RTV)” value (mmu-miR-183-5p) was 5.55 and the “RTV Direction Opposite dE?” value (mmu-miR-183-5p) was “yes”. The “RTVvHet Z Score” value (mmu-miR-185-5p) was 0.53, the “RTVvHet Z Score” value (mmu-miR-186-5p) was 0.33 and the “RTVvHet Z Score” value (mmu-miR-187-3p) was 1.13. For the same compound, the “Abs Z Score Sum (Geno + RTV)” value (mmu-miR-187-3p) was 3.96, the “RTV Direction Opposite dE?” value (mmu-miR-187-3p) was “yes” and the “RTVvHet Z Score” value (mmu-miR-188-5p) was 0.34. The “RTVvHet Z Score” value (mmu-miR-190b-5p) was 0.28, the “RTVvHet Z Score” value (mmu-miR-191-5p) was 0.28 and the “RTVvHet Z Score” value (mmu-miR-192-5p) was 0.54. For the same compound, the “Abs Z Score Sum (Geno + RTV)” value (mmu-miR-192-5p) was 3.38, the “RTV Direction Opposite dE?” value (mmu-miR-192-5p) was “yes” and the “RTVvHet Z Score” value (mmu-miR-194-5p) was 0.46. The “RTVvHet Z Score” value (mmu-miR-199a-3p) was 1.07, the “RTV Direction Opposite dE?” value (mmu-miR-199a-3p) was “yes” and the “RTVvHet Z Score” value (mmu-miR-199b-3p) was 1.17. The “RTV Direction Opposite dE?” value (mmu-miR-199b-3p) was “yes”, the “RTVvHet Z Score” value (mmu-miR-206-3p) was 0.20 and the “RTVvHet Z Score” value (mmu-miR-214-5p) was 1.09. The “RTVvHet Z Score” value (mmu-miR-219a-5p) was 1.08, the “RTVvHet Z Score” value (mmu-miR-223-3p) was −0.59 and the “RTVvHet Z Score” value (mmu-miR-224-5p) was 0.28. For the same compound, the “RTVvHet Z Score” value (mmu-miR-296-3p) was 3.08, the “Abs Z Score Sum (Geno + RTV)” value (mmu-miR-296-3p) was 5.10 and the “RTV Direction Opposite dE?” value (mmu-miR-296-3p) was “yes”. The “RTVvHet Z Score” value (mmu-miR-298-5p) was 3.59, the “Abs Z Score Sum (Geno + RTV)” value (mmu-miR-298-5p) was 6.72 and the “RTV Direction Opposite dE?” value (mmu-miR-298-5p) was “yes”. For the same compound, the “RTVvHet Z Score” value (mmu-miR-299a-3p) was 1.31, the “RTVvHet Z Score” value (mmu-miR-301a-3p) was 1.45 and the “RTVvHet Z Score” value (mmu-miR-301b-3p) was 1.05. For the same compound, the “RTVvHet Z Score” value (mmu-miR-320-3p) was 0.76, the “RTVvHet Z Score” value (mmu-miR-322-5p) was 0.75 and the “RTVvHet Z Score” value (mmu-miR-324-3p) was 0.82. The “RTVvHet Z Score” value (mmu-miR-335-Sp) was 1.02, the “RTVvHet Z Score” value (mmu-miR-340-5p) was 1.09 and the “RTVvHet Z Score” value (mmu-miR-344-3p) was 1.30. For the same compound, the “Abs Z Score Sum (Geno + RTV)” value (mmu-miR-344-3p) was 4.24, the “RTV Direction Opposite dE?” value (mmu-miR-344-3p) was “yes” and the “RTVvHet Z Score” value (mmu-miR-350-3p) was 0.41. For the same compound, the “RTVvHet Z Score” value (mmu-miR-361-5p) was 0.71, the “RTVvHet Z Score” value (mmu-miR-362-3p) was 1.05 and the “RTV Direction Opposite dE?” value (mmu-miR-362-3p) was “yes”. For the same compound, the “RTVvHet Z Score” value (mmu-miR-362-5p) was 0.83, the “Abs Z Score Sum (Geno + RTV)” value (mmu-miR-362-5p) was 3.62 and the “RTV Direction Opposite dE?” value (mmu-miR-362-5p) was “yes”. The “RTVvHet Z Score” value (mmu-miR-378a-3p) was 1.25, the “RTVvHet Z Score” value (mmu-miR-450a-5p) was 0.39 and the “RTVvHet Z Score” value (mmu-miR-450b-3p) was 0.31. For the same compound, the “RTVvHet Z Score” value (mmu-miR-451a) was −1.37, the “RTVvHet Z Score” value (mmu-miR-483-5p) was 0.01 and the “RTVvHet Z Score” value (mmu-miR-500-3p) was 1.09. For the same compound, the “RTVvHet Z Score” value (mmu-miR-503-3p) was 0.99, the “RTVvHet Z Score” value (mmu-miR-532-5p) was 0.52 and the “Abs Z Score Sum (Geno + RTV)” value (mmu-miR-532-5p) was 3.77. For the same compound, the “RTV Direction Opposite dE?” value (mmu-miR-532-5p) was “yes”, the “RTVvHet Z Score” value (mmu-miR-542-3p) was 0.81 and the “RTVvHet Z Score” value (mmu-miR-542-5p) was 2.00. For the same compound, the “Abs Z Score Sum (Geno + RTV)” value (mmu-miR-542-5p) was 7.20, the “RTV Direction Opposite dE?” value (mmu-miR-542-5p) was “yes” and the “RTVvHet Z Score” value (mmu-miR-582-3p) was 0.20. For the same compound, the “RTVvHet Z Score” value (mmu-miR-652-3p) was 0.93, the “RTVvHet Z Score” value (mmu-miR-671-5p) was 1.76 and the “RTV Direction Opposite dE?” value (mmu-miR-671-5p) was “yes”. The “RTVvHet Z Score” value (mmu-miR-700-3p) was 0.49, the “RTVvHet Z Score” value (mmu-miR-708-5p) was 1.28 and the “RTVvHet Z Score” value (mmu-miR-872-5p) was 0.68. For the same compound, the “RTVvHet Z Score” value (mmu-miR-1291) was 1.91, the “Abs Z Score Sum (Geno + RTV)” value (mmu-miR-1291) was 3.34 and the “RTV Direction Opposite dE?” value (mmu-miR-1291) was “yes”. The “RTVvHet Z Score” value (mmu-miR-1843a-5p) was 0.28, the “RTVvHet Z Score” value (mmu-miR-3102-3p) was 0.95 and the “RTVvHet Z Score” value (mmu-miR-3535) was 1.43. For the same compound, the “Abs Z Score Sum (Geno + RTV)” value (mmu-miR-3535) was 3.67, the “RTV Direction Opposite dE?” value (mmu-miR-3535) was “yes” and the “RTVvHet Z Score” value (mmu-miR-5121) was 2.65. For the same compound, the “Abs Z Score Sum (Geno + RTV)” value (mmu-miR-5121) was 4.47, the “RTV Direction Opposite dE?” value (mmu-miR-5121) was “yes” and the “Abs Z Score Sum (Geno + RTV)” value (mmu-miR-30h-5p) was 3.25. For the same compound, the “RTV Direction Opposite dE?” value (mmu-miR-30h-5p) was “yes”, the “RTVvHet Z Score” value (mmu-miR-30d-5p) was 0.70 and the “RTVvHet Z Score” value (mmu-miR-344d-3p) was 1.98. The “Abs Z Score Sum (Geno + RTV)” value (mmu-miR-344d-3p) was 4.51, the “RTV Direction Opposite dE?” value (mmu-miR-344d-3p) was “yes” and the “mmu-miR-147-5p: Abs Z Score Sum (Geno + RTV)” value [1] was 0.20. For the same compound, the “mmu-miR-181a-1-3p: Abs Z Score Sum (Geno + RTV)” value [1] was 0.18, the “mmu-miR-331-5p: Abs Z Score Sum (Geno + RTV)” value [1] was 0.00 and the “mmu-miR-668-3p: Abs Z Score Sum (Geno + RTV)” value [1] was 0.42. For the same compound, the “mmu-miR-1930-5p: Abs Z Score Sum (Geno + RTV)” value [1] was 0.38, the “mmu-miR-1943-5p: Abs Z Score Sum (Geno + RTV)” value [1] was 0.23 and the “mmu-miR-1955-5p: Abs Z Score Sum (Geno + RTV)” value [1] was 0.00. The “mmu-miR-3072-5p: Abs Z Score Sum (Geno + RTV)” value [1] was 0.38, the “mmu-miR-3076-3p: Abs Z Score Sum (Geno + RTV)” value [1] was 0.00 and the “mmu-miR-3088-3p: Abs Z Score Sum (Geno + RTV)” value [1] was 0.18. The “mmu-miR-6936-3p: Abs Z Score Sum (Geno + RTV)” value [1] was 0.38, the “mmu-miR-7224-3p: Abs Z Score Sum (Geno + RTV)” value [1] was 0.22 and the “mmu-miR-467d-3p: Abs Z Score Sum (Geno + RTV)” value [1] was 0.32.
